# Data from patent publication US20150174081A1, “LIQUID PHARMACEUTICAL COMPOSITION COMPRISING NITISINONE” (Swedish Orphan Biovitrum International AB, priority 2011, published 2015).
# Experiments:
# [1] = Particle size diameter (PSD) of nitisinone before and after air-jet micronization; type: physicochemical
# Excerpt: A lab-scale air-jet mill, 2 inches qualification model, Sturtevant Inc., was used to micronize nitisinone obtained from the company Bachem, Switzerland. The mill was operated with tangential flow (i.e. the air and drug are fed in the same direction in the milling chamber). The unmilled drug was fed into the mill using a Venturi feed system, Syncron®, Magnet Feeder model F-TO-C, where air was used to draw the feed material into the milling chamber. A product filter bag was affixed to the outlet of the mill, through which the exhausts and the milled drug collects. The milling conditions were set as follows: • Grind air: Dry nitrogen gas • Grind pressure: 90 psi • Feed pressure: 85 psi • Room conditions: Ambient 5 g of the API was passed through the lab-scale micronizer and the resulting material was collected (3.7 g). The material was analyzed for/by particle size diameter (PSD), assay and purity by high performance liquid chromatography (HPLC), x-ray powder diffraction (XRPD), differential scanning calorimetry (DSC) and polarized light microscopy (PLM).
# [2] = Stability of oxotetrahydroxanthenone solutions, LC-MS; type: physicochemical
# Experimental: The stability study of the main degradation product in Example 6, oxotetrahydroxanthenone, is performed under similar conditions as described in Example 6. Samples of oxotetrahydroxanthenone (OTHX), 81 μg/ml in either citrate buffer pH 3.0 or phosphate buffer pH 6.8, were put on stability at +5° C., +25° C. and +37° C., respectively, for 6 months. The concentrations of OTHX and the secondary degradation products 1,3-cyclohexanedione (CHD) and 4-(trifluoromethyl)salicylic acid (TSA) were analyzed by LC-MS. The results, shown in Table XI, below, are expressed as percent of the initial concentration of OTHX. The mass balance expressed as the total recovery of CHD+OTHX+TSA compared to the initial concentration of OTHX were calculated from MmOTHX/(Mm CHD+MmTSA)×(CHDconc+TSAconc)+OTHXconc expressed in μg/ml where MmOTHX, MmCHD and MmTSA are the molecular masses corresponding to 282, 202 and 206 g/mol, respectively.
# [3] = Citrate buffer pH 3.0, 5° C., 1.8 months
# [4] = Citrate buffer pH 3.0, 5° C., 3 months
# [5] = Citrate buffer pH 3.0, 5° C., 6 months
# [6] = Citrate buffer pH 3.0, 25° C., 1.8 months
# [7] = Citrate buffer pH 3.0, 25° C., 3 months
# [8] = Citrate buffer pH 3.0, 25° C., 6 months
# [9] = Citrate buffer pH 3.0, 37° C., 1.8 months
# [10] = Citrate buffer pH 3.0, 37° C., 3 months
# [11] = Citrate buffer pH 3.0, 37° C., 6 months
# [12] = Phosphate buffer pH 6.8, 5° C., 1.8 months
# [13] = Phosphate buffer pH 6.8, 5° C., 3 months
# [14] = Phosphate buffer pH 6.8, 5° C., 6 months
# [15] = Phosphate buffer pH 6.8, 25° C., 1.8 months
# [16] = Phosphate buffer pH 6.8, 25° C., 3 months
# [17] = Phosphate buffer pH 6.8, 25° C., 6 months
# [18] = Phosphate buffer pH 6.8, 37° C., 1.8 months
# [19] = Phosphate buffer pH 6.8, 37° C., 3 months
# [20] = Phosphate buffer pH 6.8, 37° C., 6 months
smiles,measurement,setting,value
"O=C1CCCC(=O)C1C(=O)c1ccc(C(F)(F)F)cc1[N+](=O)[O-] [Micronized material, 2-(2-nitro-4-trifluoromethylbenzoyl)-1,3-cyclohexanedione]",Particle size diameter d10,[1],0.30 microns
same,Particle size diameter d20,[1],0.47 microns
same,Particle size diameter d50,[1],1.29 microns
same,Particle size diameter d80,[1],2.59 microns
same,Particle size diameter d90,[1],3.59 microns
"O=C1CCCc2oc3cc(C(F)(F)F)ccc3c(=O)c21 [OTHX, 6-(trifluoromethyl)-3,4-dihydro-1H-xanthenene-1,9(2H)-dione]",Concentration of OTHX,[2]; [3],96.7% of the initial concentration of OTHX
same,Concentration of secondary degradation product CHD,[2]; [3],0.0% of the initial concentration of OTHX
same,Concentration of secondary degradation product TSA,[2]; [3],0.0% of the initial concentration of OTHX
same,Concentration of OTHX,[2]; [4],96.9% of the initial concentration of OTHX
same,Concentration of secondary degradation product CHD,[2]; [4],0.0% of the initial concentration of OTHX
same,Concentration of secondary degradation product TSA,[2]; [4],0.0% of the initial concentration of OTHX
same,Concentration of OTHX,[2]; [5],91.6% of the initial concentration of OTHX
same,Concentration of secondary degradation product CHD,[2]; [5],0.0% of the initial concentration of OTHX
same,Concentration of secondary degradation product TSA,[2]; [5],0.0% of the initial concentration of OTHX
same,Concentration of OTHX,[2]; [6],96.7% of the initial concentration of OTHX
same,Concentration of secondary degradation product CHD,[2]; [6],0.0% of the initial concentration of OTHX
same,Concentration of secondary degradation product TSA,[2]; [6],0.0% of the initial concentration of OTHX
same,Concentration of OTHX,[2]; [7],102.7% of the initial concentration of OTHX
same,Concentration of secondary degradation product CHD,[2]; [7],0.0% of the initial concentration of OTHX
same,Concentration of secondary degradation product TSA,[2]; [7],0.0% of the initial concentration of OTHX
same,Concentration of OTHX,[2]; [8],92.3% of the initial concentration of OTHX
same,Concentration of secondary degradation product CHD,[2]; [8],0.0% of the initial concentration of OTHX
same,Concentration of secondary degradation product TSA,[2]; [8],0.0% of the initial concentration of OTHX
same,Concentration of OTHX,[2]; [9],97.9% of the initial concentration of OTHX
same,Concentration of secondary degradation product CHD,[2]; [9],0.0% of the initial concentration of OTHX
same,Concentration of secondary degradation product TSA,[2]; [9],0.2% of the initial concentration of OTHX
same,Concentration of OTHX,[2]; [10],97.7% of the initial concentration of OTHX
same,Concentration of secondary degradation product CHD,[2]; [10],0.0% of the initial concentration of OTHX
same,Concentration of secondary degradation product TSA,[2]; [10],0.0% of the initial concentration of OTHX
same,Concentration of OTHX,[2]; [11],95.3% of the initial concentration of OTHX
same,Concentration of secondary degradation product CHD,[2]; [11],0.0% of the initial concentration of OTHX
same,Concentration of secondary degradation product TSA,[2]; [11],0.0% of the initial concentration of OTHX
same,Concentration of OTHX,[2]; [12],96.7% of the initial concentration of OTHX
same,Concentration of secondary degradation product CHD,[2]; [12],0.0% of the initial concentration of OTHX
same,Concentration of secondary degradation product TSA,[2]; [12],1.4% of the initial concentration of OTHX
same,Concentration of OTHX,[2]; [13],91.0% of the initial concentration of OTHX
same,Concentration of secondary degradation product CHD,[2]; [13],0.7% of the initial concentration of OTHX
same,Concentration of secondary degradation product TSA,[2]; [13],1.9% of the initial concentration of OTHX
same,Concentration of OTHX,[2]; [14],83.1% of the initial concentration of OTHX
same,Concentration of secondary degradation product CHD,[2]; [14],0.0% of the initial concentration of OTHX
same,Concentration of secondary degradation product TSA,[2]; [14],0.0% of the initial concentration of OTHX
same,Concentration of OTHX,[2]; [15],74.8% of the initial concentration of OTHX
same,Concentration of secondary degradation product CHD,[2]; [15],7.7% of the initial concentration of OTHX
same,Concentration of secondary degradation product TSA,[2]; [15],13.0% of the initial concentration of OTHX
same,Concentration of OTHX,[2]; [16],63.2% of the initial concentration of OTHX
same,Concentration of secondary degradation product CHD,[2]; [16],9.7% of the initial concentration of OTHX
same,Concentration of secondary degradation product TSA,[2]; [16],20.2% of the initial concentration of OTHX
same,Concentration of OTHX,[2]; [17],44.8% of the initial concentration of OTHX
same,Concentration of secondary degradation product CHD,[2]; [17],25.2% of the initial concentration of OTHX
same,Concentration of secondary degradation product TSA,[2]; [17],36.4% of the initial concentration of OTHX
same,Concentration of OTHX,[2]; [18],33.5% of the initial concentration of OTHX
same,Concentration of secondary degradation product CHD,[2]; [18],22.2% of the initial concentration of OTHX
same,Concentration of secondary degradation product TSA,[2]; [18],38.6% of the initial concentration of OTHX
same,Concentration of OTHX,[2]; [19],13.7% of the initial concentration of OTHX
same,Concentration of secondary degradation product CHD,[2]; [19],21.5% of the initial concentration of OTHX
same,Concentration of secondary degradation product TSA,[2]; [19],49.1% of the initial concentration of OTHX
same,Concentration of OTHX,[2]; [20],0.4% of the initial concentration of OTHX
same,Concentration of secondary degradation product CHD,[2]; [20],32.8% of the initial concentration of OTHX
same,Concentration of secondary degradation product TSA,[2]; [20],66.4% of the initial concentration of OTHX
"O=C1CCCC(=O)C1C(=O)c1ccc(C(F)(F)F)cc1[N+](=O)[O-] [Start material, 2-(2-nitro-4-trifluoromethylbenzoyl)-1,3-cyclohexanedione]",Particle size diameter d10,[1],20.50 microns
same,Particle size diameter d20,[1],33.10 microns
same,Particle size diameter d50,[1],60.01 microns
same,Particle size diameter d80,[1],94.42 microns
same,Particle size diameter d90,[1],115.11 microns
